Consider three compounds from article PMC5522529, “Mechanisms of Paradoxical Activation of AMPK by the Kinase Inhibitors SU6656 and Sorafenib” (Cell Chemical Biology, 2017).

By Km is commonly meant the substrate concentration at which the rate is half of its maximum.

Read-outs that look alike come from different tables or passages of the source.

Assay [1] addresses α2 kinase domain (α2-KD, residues 1–310) (Homo sapiens, UniProt P54646). The settings on record: read-out: Km for ATP; α2-KD phosphorylated using CaMKK2.
Assay [2] deals with AMPK. The experiment in a line: AMPK activity and Thr172 phosphorylation in HEK293 cells. It counts as cell-based, human. The settings on record: 1 hr. As to the method:
Figure 1 SU6656 Activates AMPK but Not AMPK-Related Kinases (A) HEK293 cells were incubated with the indicated concentrations of SU6656 or berberine (300 μM) for 1 hr; total AMPK activity was assayed in immunoprecipitates (top; mean ± SEM, n = 4), and phosphorylation of AMPK (Thr172), ACC (Ser80), and Raptor (Ser792) analyzed by western blotting (bottom; n = 2). (B) HEK293 cells were incubated with 100 μM SU6656 (1 hr), AMPK complexes containing α1, α2, β1, and β2 immunoprecipitated using isoform-specific antibodies, and AMPK activity measured (mean ± SEM, n = 4). (C) HeLa cells stably expressing LKB1 ([Fogarty et al., 2010]) were incubated with 100 μM SU6656 for 1 hr, AMPK or individual ARKs immunoprecipitated, and kinase assays carried out (antibodies that distinguish MARK2/MARK3 were not available, so they were assayed together). Results are means ± SEM (n = 2). In all panels, asterisks indicate significant differences from controls without SU6656. *p < 0.05, **p < 0.01, ****p < 0.0001. […]
Endogenous AMPK was immunoprecipitated using the specified antibodies (for total AMPK, an equal mixture of anti-α1 and –α2 antibodies) and assayed at 200 μM ATP ([Hardie et al., 2000], [Towler et al., 2008]) using the AMARA peptide ([Dale et al., 1995]) as substrate, except for assays of allosteric activation by AMP (Figure 5A) where the SAMS peptide was used as substrate with 2 mM ATP ([Gowans et al., 2013]). The AMPK-related kinases SIK1, SIK2, SIK3, SNARK, MARK2/3 and MARK4 were immunoprecipitated and assayed as previously described ([Lizcano et al., 2004]) in lysates of Hela cells stably expressing LKB1 ([Fogarty et al., 2010]). LKB1 was assayed using the LKBtide peptide as substrate ([Sakamoto et al., 2004]).

A further assay relates to ACC. The experiment in a line: ACC phosphorylation in HEK293 cells (western blot). The class given is cell-based, human. The following applies: 1 hr. As to the method: Figure 1 SU6656 Activates AMPK but Not AMPK-Related Kinases (A) HEK293 cells were incubated with the indicated concentrations of SU6656 or berberine (300 μM) for 1 hr; total AMPK activity was assayed in immunoprecipitates (top; mean ± SEM, n = 4), and phosphorylation of AMPK (Thr172), ACC (Ser80), and Raptor (Ser792) analyzed by western blotting (bottom; n = 2). (B) HEK293 cells were incubated with 100 μM SU6656 (1 hr), AMPK complexes containing α1, α2, β1, and β2 immunoprecipitated using isoform-specific antibodies, and AMPK activity measured (mean ± SEM, n = 4). (C) HeLa cells stably expressing LKB1 ([Fogarty et al., 2010]) were incubated with 100 μM SU6656 for 1 hr, AMPK or individual ARKs immunoprecipitated, and kinase assays carried out (antibodies that distinguish MARK2/MARK3 were not available, so they were assayed together). Results are means ± SEM (n = 2). In all panels, asterisks indicate significant differences from controls without SU6656. *p < 0.05, **p < 0.01, ****p < 0.0001.
(B) WT or RG cells were treated as in (A) and nucleotides extracted for analysis (mean ± SD, n = 3). […] (E) (See also Figure S2) Time courses of cellular oxygen uptake before and after addition of the indicated concentrations of sorafenib (SO, μM), SU6656 (100 μM) or phenformin (PHEN, 10 mM) (mean ± SEM, n = 4). (F) Effect of various concentrations of sorafenib or phenformin (10 mM) on activation (top, mean ± SEM, n = 3) or phosphorylation (bottom) of AMPK in cells expressing wild-type AMPK-γ2 (WT) or the R531G mutant AMPK-γ2 (RG). In all panels, asterisks show significant differences from DMSO controls (ns, not significant). […]
Cells were incubated for 60 min and AMPK activity measured; results in the top panel are means ± SEM (n = 8), with significant differences from the DMSO control indicated (ns, not significant). […]
SDS-PAGE was performed using precast Bis-Tris 4–12% gradient polyacrylamide gels in the MOPS buffer system (ThermoFisher Scientific). […] Protein concentrations were determined by Coomassie Blue binding with bovine serum albumin as standard ([Bradford, 1976]). […]
(A western blot detects proteins with antibodies after separation by electrophoresis.)

The next assay deals with HEK293 cells. Put plainly: Cellular AMP:ATP and ADP:ATP ratios. It counts as cell-based, human. The following applies: 1 hr. As to the method:
(B) WT or RG cells were treated as in (A) and nucleotides extracted for analysis (mean ± SD, n = 3). […] (E) (See also Figure S2) Time courses of cellular oxygen uptake before and after addition of the indicated concentrations of sorafenib (SO, μM), SU6656 (100 μM) or phenformin (PHEN, 10 mM) (mean ± SEM, n = 4). (F) Effect of various concentrations of sorafenib or phenformin (10 mM) on activation (top, mean ± SEM, n = 3) or phosphorylation (bottom) of AMPK in cells expressing wild-type AMPK-γ2 (WT) or the R531G mutant AMPK-γ2 (RG). In all panels, asterisks show significant differences from DMSO controls (ns, not significant). In (B), daggers (†) show significant differences between results in WT and RG cells. *p < 0.05, **p < 0.01, ***p < 0.001, ****p < 0.0001, ^††††p < 0.0001.
Cells were incubated for 60 min and AMPK activity measured; results in the top panel are means ± SEM (n = 8), with significant differences from the DMSO control indicated (ns, not significant). The bottom panels show western blots from the same experiment (n = 2). (B) Analysis of AMP:ATP and ADP:ATP ratios from a parallel experiment to that in (A). Results are means ± SEM (n = 3), with significant differences from the DMSO control indicated. *p < 0.05, **p < 0.01, ****p < 0.0001.
The levels of AMP, ADP and ATP were measured using a TSQ Quantiva interfaced with Ultimate 3000 Liquid Chromatography system (ThermoScientific), equipped with a porous graphitic carbon column (HyperCarb 30x1mm ID 3 μm; Part No: C-35003-031030, Thermo-Scientific). Mobile phase buffer A consisted of 0.3% (v/v) formic acid adjusted to pH 9 with ammonia prior to a 1:10 dilution. Mobile phase buffer B was 80% (v/v) acetonitrile. The column was maintained at a controlled temperature of 30°C and was equilibrated with 10% buffer B for 5 minutes at a constant flow rate of 0.06 mL/min. Aliquots of 1 μL of each sample were loaded onto the column and compounds eluted with a linear gradient of 10%-60% buffer B over 9 min. Buffer B was then increased to 100% within 1 min, and the column washed for 5 min with 100% Buffer B. Eluents were sprayed into the TSQ Quantiva using Ion Max NG ion source with ion transfer tube temperature set to 350°C and vaporizer temperature 125°C. The TSQ Quantiva was run in negative mode with a spray voltage of 2600, sheath gas 40 and Aux gas 10. Levels of ATP, ADP and AMP were measured using multiple reactions monitoring mode (MRM) with optimised collision energies and radio frequencies previously determined by infusing pure compounds. Three transitions were used to monitor each of the three compounds, ATP (505.92>158.98, 505.92>408.12 and 505.92>426.12), ADP (426.98>158.98, 426.98>328.78 and 426.98>409.09) and AMP (345.96>134.20, 345.96>151.27 and 345.96>211.12).

In the next assay the test system is LKB1 versus AMPK. On the set-up: method as in MRC Kinase Inhibitor Database. The following applies: ref MRC Kinase Inhibitor Database; cited from earlier work.
The next assay has as its system Erk1/Erk2. The experiment in a line: Erk1/Erk2 phosphorylation in HEK293 cells (western blot). The class given is cell-based, human. The following applies: SU6656 100 μM, PP2 100 nM.
Assay [3] deals with AMPK. The class given is cell-based, mouse. The following applies: SYF cells, 1 hr. As to the method: We next tested the effect of SU6656 in SYF cells, which are mouse embryo fibroblasts (MEFs) with null alleles for Src, Yes, and Fyn, the three Src kinases expressed in MEFs ([Klinghoffer et al., 1999]).
Top: AMPK activity (mean ± SEM, n = 4); bottom: western blots showing phosphorylation of Thr172 on AMPK, and of ERK1/2, in cells treated with DMSO (control), SU6656 (100 μM), or PP2 (100 nM) (n = 2). (B) As (A), but in SYF cells. (C) HeLa cells were transfected with DNAs encoding GFP alone, or GFP fused to WT, Y261F/Y365F (FF), or Y36F/Y261F/Y365F (FFF) mutants of LKB1; cells were treated with increasing concentrations of SU6656 for 1 hr and AMPK activity determined (mean ± SEM, n = 4). See also Figure S1. (D) HEK293 cells were transfected with DNAs encoding FLAG-tagged AMPK-α2 with or without a Y436F mutation. Cells were incubated with DMSO (control), 100 μM SU6656, 10 mM phenformin, or 10 μM A23187 for 1 hr; AMPK complexes were immunoprecipitated using anti-FLAG antibody and assayed. The top panels show kinase activities (mean ± SD, n = 3); the bottom panels show blots from the same experiment (n = 2). In all panels, asterisks indicate significant differences from DMSO controls; in (D), there were no significant differences between the WT and Y463F mutant. **p < 0.01, ****p < 0.0001. […]

A further assay deals with Erk1/2. The experiment in a line: Erk1/2 phosphorylation in SYF cells. The class given is cell-based, mouse. The following applies: SU6656 100 μM, PP2 100 nM.

α2 kinase domain (α2-KD, residues 1–310), sequence (P54646 1-310): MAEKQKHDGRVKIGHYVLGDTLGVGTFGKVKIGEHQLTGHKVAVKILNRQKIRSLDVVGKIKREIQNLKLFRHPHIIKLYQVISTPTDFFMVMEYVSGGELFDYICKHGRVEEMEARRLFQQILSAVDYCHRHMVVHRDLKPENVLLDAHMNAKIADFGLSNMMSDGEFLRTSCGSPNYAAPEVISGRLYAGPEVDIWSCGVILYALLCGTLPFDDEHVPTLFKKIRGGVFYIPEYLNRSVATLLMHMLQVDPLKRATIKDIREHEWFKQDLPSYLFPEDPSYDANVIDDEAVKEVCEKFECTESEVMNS

For `Nc1ncnc2c1ncn2[C@@H]1O[C@H](COP(=O)(O)OP(=O)(O)OP(=O)(O)O)[C@@H](O)[C@H]1O` [ATP], the Michaelis constant (Km) in assay [1] was 151 ± 7 µM.

Regarding `CC1(C)C(=O)N([C@H]2CCc3c(O)cccc32)c2nc(Nc3cccc(CN4CCCC4)c3)ncc21` [MRT199665], the “AMPK activity / Thr172 phosphorylation” value in the assay on AMPK [2] is “modest increase in AMPK activity and Thr172 phosphorylation”. For the same compound, the ACC phosphorylation entry with ACC is recorded as “inhibition of phosphorylation”. In the assay with HEK293 cells, the “cellular AMP:ATP and ADP:ATP ratios” value is listed as “not associated with changes in AMP:ATP or ADP:ATP ratios”. In the assay on LKB1 versus AMPK, the “potency of LKB1 inhibition relative to AMPK inhibition” value is listed as “inhibition of LKB1 was less potent than that of AMPK”.

As to `CC(C)(C)n1nc(-c2ccc(Cl)cc2)c2c(N)ncnc21` [PP2], the “AMPK activity / Thr172 phosphorylation” value is listed as “had no effect on AMPK activity or Thr172 phosphorylation” in the assay on AMPK [2] and “still had no effect on AMPK” in the assay with AMPK [3]. Further, the Erk1/Erk2 phosphorylation entry with Erk1/Erk2 is “reduced phosphorylation of Erk1/Erk2”. In addition, in the assay on Erk1/2, the Erk1/2 phosphorylation entry is listed as “had no effect on Erk1/2”.
